Measured values: PubChem BioAssay (NCI)
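48-hour exposure; five concentrations; linearly interpolated endpoints. Definition used: TGI = concentration required for complete inhibition of growth.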

Assays:
Test in all cases: NCI-60 cell line screen, 48 h
[1] = test system: 786-0 renal
[2] = test system: A549 NSCLC
[3] = test system: ACHN renal
[4] = test system: BT-549 breast
[5] = test system: CAKI-1 renal
[6] = test system: CCRF-CEM leukemia
[7] = test system: COLO 205 colon
[8] = test system: DU-145 prostate
[9] = test system: EKVX NSCLC
[10] = test system: HCC-2998 colon
[11] = test system: HCT-116 colon
[12] = test system: HCT-15 colon
[13] = test system: HL-60(TB) leukemia
[14] = test system: HOP-62 NSCLC
[15] = test system: HS 578T breast
[16] = test system: HT29 colon
[17] = test system: IGROV1 ovarian
[18] = test system: K-562 leukemia
[19] = test system: KM12 colon
[20] = test system: M14 melanoma
[21] = test system: MCF7 breast
[22] = test system: MDA-MB-231 breast
[23] = test system: MDA-MB-435
[24] = test system: MDA-N
[25] = test system: MOLT-4 leukemia
[26] = test system: NCI-H226 lung
[27] = test system: NCI-H23 lung
[28] = test system: NCI-H460 lung
[29] = test system: NCI-H522 lung
[30] = test system: NCI/ADR-RES ovarian
[31] = test system: OVCAR-3 ovarian
[32] = test system: OVCAR-4 ovarian
[33] = test system: OVCAR-8 ovarian
[34] = test system: PC-3 prostate
[35] = test system: RPMI-8226 leukemia
[36] = test system: RXF 393 renal
[37] = test system: SF-268 CNS
[38] = test system: SF-295 CNS
[39] = test system: SF-539 CNS
[40] = test system: SK-MEL-28 melanoma
[41] = test system: SK-MEL-5 melanoma
[42] = test system: SK-OV-3 ovarian
[43] = test system: SN12C renal
[44] = test system: SNB-19 CNS
[45] = test system: SNB-75 CNS
[46] = test system: SR leukemia
[47] = test system: SW-620 colon
[48] = test system: T-47D breast
[49] = test system: TK-10 renal
[50] = test system: U251 CNS
[51] = test system: UACC-257 melanoma
[52] = test system: UACC-62 melanoma
[53] = test system: UO-31 renal
[54] = test system: LOX IMVI melanoma
[55] = test system: MALME-3M melanoma
[56] = test system: OVCAR-5 ovarian

Measured: TGI

CN(C)c1ccc(/C=C2\Oc3ccccc3C2=O)cc1
> 100 µM: [1] | [2] | [3] | [4] | [5] | [6] | [7] | [8] | [9] | [10] | [11] | [12] | [13] | [14] | [15] | [16] | [17] | [18] | [19] | [20] | [21] | [22] | [23] | [24] | [25] | [26] | [27] | [28] | [29] | [30] | [31] | [32] | [33] | [34] | [35] | [36] | [37] | [38] | [39] | [40] | [41] | [42] | [43] | [44] | [45] | [46] | [47] | [48] | [49] | [50] | [51] | [52] | [53]

COc1ccc(CCn2nccc2C)cc1
> 100 µM: [2] | [3] | [4] | [5] | [6] | [7] | [8] | [9] | [11] | [12] | [13] | [14] | [15] | [16] | [17] | [18] | [19] | [54] | [20] | [55] | [21] | [22] | [23] | [24] | [25] | [27] | [28] | [30] | [31] | [32] | [56] | [33] | [34] | [35] | [36] | [37] | [38] | [39] | [40] | [41] | [42] | [43] | [44] | [45] | [46] | [47] | [48] | [49] | [50] | [51] | [52] | [53]

CN(C(=O)CC(=O)CP(=O)(c1ccccc1)c1ccccc1)c1ccccc1
> 100 µM: [1] | [2] | [3] | [4] | [5] | [6] | [7] | [8] | [9] | [10] | [11] | [12] | [13] | [14] | [15] | [16] | [17] | [18] | [19] | [20] | [21] | [22] | [23] | [24] | [25] | [26] | [27] | [28] | [29] | [30] | [31] | [32] | [33] | [34] | [35] | [36] | [37] | [38] | [39] | [40] | [41] | [42] | [43] | [44] | [45] | [46] | [47] | [48] | [49] | [50] | [51] | [52] | [53]
